Laboratory results from ChEMBL document CHEMBL1130676, “Aryl ketones as novel replacements for the C-terminal amide bond of succinyl hydroxamate MMP inhibitors” (Bioorg Med Chem Lett, 1998).

How the values were obtained:
Stromelysin-1 [1] = target: T1, Stromelysin-1 (Homo sapiens, UniProt P08254); test: In vitro inhibitory activity against human recombinant matrix metalloprotease 3
[2] = target: T2, 72 kDa type IV collagenase (Homo sapiens, UniProt P08253); test: In vitro inhibitory activity against matrix metalloprotease 2 isolated from human HT1080 fibrosarcoma cells induced with TNF
T2 sequence (P08253 whole entry): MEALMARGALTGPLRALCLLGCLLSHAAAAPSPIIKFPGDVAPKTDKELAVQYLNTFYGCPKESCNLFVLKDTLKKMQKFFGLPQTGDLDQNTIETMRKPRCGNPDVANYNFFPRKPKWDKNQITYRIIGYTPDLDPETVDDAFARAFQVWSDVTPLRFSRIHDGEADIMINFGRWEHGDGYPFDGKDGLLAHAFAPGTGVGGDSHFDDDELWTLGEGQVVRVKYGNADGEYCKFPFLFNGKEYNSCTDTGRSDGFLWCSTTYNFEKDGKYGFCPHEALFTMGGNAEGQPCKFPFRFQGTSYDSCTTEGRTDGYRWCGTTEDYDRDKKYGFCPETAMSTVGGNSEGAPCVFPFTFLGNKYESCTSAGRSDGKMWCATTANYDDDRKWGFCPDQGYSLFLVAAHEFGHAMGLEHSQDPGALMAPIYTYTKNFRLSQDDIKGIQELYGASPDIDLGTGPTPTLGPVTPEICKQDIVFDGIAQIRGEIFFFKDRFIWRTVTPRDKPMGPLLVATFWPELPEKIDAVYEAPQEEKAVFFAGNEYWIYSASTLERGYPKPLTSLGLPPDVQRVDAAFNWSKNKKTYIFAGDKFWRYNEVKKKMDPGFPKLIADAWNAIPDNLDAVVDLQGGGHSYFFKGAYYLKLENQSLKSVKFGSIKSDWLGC

Matrilysin = target: T3, Matrilysin (Homo sapiens, UniProt P09237); test: In vitro inhibitory activity against human recombinant matrix metalloprotease 7
T3 sequence (P09237 whole entry): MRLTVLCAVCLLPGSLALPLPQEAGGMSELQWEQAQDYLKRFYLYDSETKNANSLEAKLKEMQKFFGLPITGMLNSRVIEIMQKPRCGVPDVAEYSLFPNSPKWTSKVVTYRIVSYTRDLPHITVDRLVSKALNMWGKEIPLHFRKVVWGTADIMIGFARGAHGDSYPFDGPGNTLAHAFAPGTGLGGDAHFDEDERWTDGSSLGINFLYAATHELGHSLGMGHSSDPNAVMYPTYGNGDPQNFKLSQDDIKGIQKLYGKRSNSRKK

Interstitial collagenase = target: T4, Interstitial collagenase (Homo sapiens, UniProt P03956); test: In vitro inhibitory activity against matrix metalloprotease 1 isolated from the culture medium of human skin fibroblasts induced with PMA
T4 sequence (P03956 whole entry): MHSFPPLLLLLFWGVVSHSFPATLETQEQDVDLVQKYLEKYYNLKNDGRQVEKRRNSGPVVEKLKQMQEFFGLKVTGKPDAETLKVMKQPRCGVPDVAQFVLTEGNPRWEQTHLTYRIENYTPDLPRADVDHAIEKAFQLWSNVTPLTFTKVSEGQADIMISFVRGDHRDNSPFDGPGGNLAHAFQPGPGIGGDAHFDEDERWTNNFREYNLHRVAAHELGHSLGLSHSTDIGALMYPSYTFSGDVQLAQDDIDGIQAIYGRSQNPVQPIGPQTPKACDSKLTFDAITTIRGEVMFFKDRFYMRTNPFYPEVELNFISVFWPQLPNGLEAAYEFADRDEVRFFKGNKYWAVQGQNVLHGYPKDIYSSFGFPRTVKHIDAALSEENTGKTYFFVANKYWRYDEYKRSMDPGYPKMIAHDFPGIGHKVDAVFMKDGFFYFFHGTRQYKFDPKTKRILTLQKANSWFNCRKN

[3] = Oral bioavailability in monkey (dose 10 mg/kg); format: ADME, organism-based; conditions: primates, in vivo
[4] = Half life was measured in monkey at dose of 10 mg/kg by po administration; format: ADME, organism-based; design: dose 10 mg/kg, route oral; conditions: primates, in vivo
Stromelysin-1 [5] = target: T1, Stromelysin-1; test: Inhibition of human recombinant matrix metalloprotease 3 (MMP3)
[6] = target: T2, 72 kDa type IV collagenase; test: Inhibition of matrix metalloprotease 2 (MMP2) of human HT1080 fibrosarcoma cells induced with TNF
[7] = Half life was measured in rat at dose of 30 mg/kg by po administration; format: ADME, organism-based; design: dose 30 mg/kg, route oral; conditions: in vivo
[8] = Bioavailability in monkey after po administration of 10 mg/kg dose; format: ADME, organism-based; conditions: primates, in vivo
[9] = Bioavailability in rat after po administration of 30 mg/kg dose; format: ADME, organism-based; conditions: in vivo
[10] = Half life was measured in rat at dose of 30 mg/kg by iv administration; format: ADME, organism-based; design: dose 30 mg/kg, route intravenous; conditions: in vivo

T1 sequence (P08254 whole entry): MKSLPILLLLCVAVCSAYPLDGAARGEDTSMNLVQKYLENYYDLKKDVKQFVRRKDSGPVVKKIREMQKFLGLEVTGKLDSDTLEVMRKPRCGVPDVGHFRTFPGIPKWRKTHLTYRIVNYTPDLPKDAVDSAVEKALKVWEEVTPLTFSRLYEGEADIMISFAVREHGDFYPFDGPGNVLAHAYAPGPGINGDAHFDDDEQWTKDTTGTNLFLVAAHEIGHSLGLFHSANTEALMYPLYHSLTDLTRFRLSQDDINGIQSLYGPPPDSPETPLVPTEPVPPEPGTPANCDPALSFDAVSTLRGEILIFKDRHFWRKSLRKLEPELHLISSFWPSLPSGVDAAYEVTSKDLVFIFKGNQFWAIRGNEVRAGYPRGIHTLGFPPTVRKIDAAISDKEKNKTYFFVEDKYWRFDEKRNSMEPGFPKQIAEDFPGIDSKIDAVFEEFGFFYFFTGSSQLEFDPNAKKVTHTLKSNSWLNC

Row | Compound | IC50 (Stromelysin-1 [1]) [nM] | IC50 [2] [nM] | IC50 (Matrilysin) [nM] | IC50 (Interstitial collagenase) [nM] | other results
1 | C=CCC(C(=O)NO)C(CC(C)C)C(=O)N[C@@H](Cc1ccccc1)C(=O)c1cccs1 (single isomer, unassigned) | 3.2 | 6.5 | 13 |  | 
2 | CC(C)C[C@H](CC(=O)NO)C(=O)N[C@@H](Cc1ccccc1)C(=O)c1c[nH]c2ccccc12 |  | 1 | 4.3 | 5.1 | 
3 | C=CCC(C(=O)NO)C(CC(C)C)C(=O)N[C@@H](Cc1ccccc1)C(=O)c1cccnc1 (single isomer, unassigned) | 10 | 8.6 | 8.6 | 14 | 
4 | C=CCC(C(=O)NO)C(CC(C)C)C(=O)N[C@@H](Cc1ccccc1)C(=O)c1nccs1 (single isomer, unassigned) |  |  | 220 |  | IC50 (Stromelysin-1 [5]): 360 nM; IC50 [6]: 1100 nM
5 | C=CCC(C(=O)NO)C(CC(C)C)C(=O)N[C@@H](Cc1ccccc1)C(=O)c1nc2ccccc2[nH]1 (single isomer, unassigned) | 54 | 110 | 68 | 180 | 
6 | C=CCC(C(=O)NO)C(CC(C)C)C(=O)N[C@@H](Cc1ccccc1)C(C)=O (single isomer, unassigned) |  | 22 | 45 |  | 
7 | C=CCC(C(=O)NO)C(CC(C)C)C(=O)N[C@@H](Cc1ccccc1)C(=O)c1c[nH]c2ccccc12 (single isomer, unassigned) |  |  |  |  | half-life [7]: 1.45 h; bioavailability [8]: 12%; half-life [4]: 20 h; bioavailability [9]: 7%
8 | C=CCC(C(=O)NO)C(CC(C)C)C(=O)N[C@@H](Cc1ccccc1)C(=O)NC (single isomer, unassigned) |  |  | 11 |  | half-life [10]: 0.35 h; bioavailability [9]: 0%
9 | CC(C)C[C@H]1C(=O)N[C@H](C(=O)c2ccc[nH]2)Cc2ccc(cc2)OCCCC[C@@H]1C(=O)NO | 7.2 | 7.2 | 4.2 | 1.9 | 
10 | CNC(=O)[C@@H]1Cc2ccc(cc2)OCCCCC[C@H](C(=O)NO)[C@@H](CC(C)C)C(=O)N1 | 2.6 |  | 6.1 |  | 
11 | C=CCC(C(=O)NO)C(CC(C)C)C(=O)N[C@@H](Cc1ccccc1)C(=O)c1ncco1 (single isomer, unassigned) | 1.8 | 7.2 | 4.2 | 2.7 | 
12 | C=CCC(C(=O)NO)C(CC(C)C)C(=O)N[C@@H](Cc1ccccc1)C(=O)c1cc[nH]c1 (single isomer, unassigned) | 6.6 | 2.7 | 8 | 6.2 | 
13 | CC(C)C[C@H]1C(=O)N[C@H](C(=O)c2ccc(C(C)(C)C)cc2)Cc2ccc(cc2)OCCCC[C@@H]1C(=O)NO | 110 | 91 | 40 | 270 | 
14 | CNC(=O)[C@@H](NC(=O)C(CC(C)C)C(O)C(=O)NO)C(C)(C)C (single isomer, unassigned) |  |  |  |  | bioavailability [3]: 15%; half-life [4]: 27 h
15 | C=CCC(C(=O)NO)C(CC(C)C)C(=O)N[C@@H](Cc1ccccc1)C(=O)c1cn(C)c2ccccc12 (single isomer, unassigned) | 36 | 23 | 29 | 4.7 | 
16 | CNC(=O)[C@@H]1Cc2ccc(cc2)OCCCC[C@H](C(=O)NO)[C@@H](CC(C)C)C(=O)N1 | 4 | 5.6 |  |  | 
17 | C=CCC(C(=O)NO)C(CC(C)C)C(=O)N[C@@H](Cc1ccccc1)C(=O)CC (single isomer, unassigned) | 82 | 33 | 39 | 40 | 
18 | CC(C)C[C@H]1C(=O)N[C@H](C(=O)c2ccc(S(C)(=O)=O)cc2)Cc2ccc(cc2)OCCCC[C@@H]1C(=O)NO | 9.8 | 8.5 | 5.7 | 60 | 

Continued, in another order:

Row | IC50 (Stromelysin-1 [1]) [nM] | IC50 [2] [nM] | IC50 (Matrilysin) [nM] | IC50 (Interstitial collagenase) [nM] | Compound | other results
19 |  | 0.6 | 1.1 | 5 | CC(C)CC(C(=O)N[C@@H](Cc1ccccc1)C(=O)c1c[nH]c2ccccc12)C(O)C(=O)NO (single isomer, unassigned) | 
20 |  | 1.1 | 1.2 | 2.6 | C=CCC(C(=O)NO)C(CC(C)C)C(=O)N[C@@H](Cc1ccccc1)C(=O)c1ccc[nH]1 (single isomer, unassigned) | 
21 |  | 0.38 | 0.3 | 0.26 | CC(C)CC(C(=O)N[C@H](C(=O)c1c[nH]c2ccccc12)C(C)(C)C)C(O)C(=O)NO (single isomer, unassigned) | bioavailability [3]: 10%; half-life [4]: 12 h
22 | 8.9 | 9.5 | 3.3 | 13 | CC(C)C[C@H]1C(=O)N[C@H](C(=O)c2ccccc2)Cc2ccc(cc2)OCCCC[C@@H]1C(=O)NO | bioavailability [3]: 33%; half-life [4]: 15 h
23 | 5.1 | 6.1 | 3.1 | 4.8 | CC(C)C[C@H]1C(=O)N[C@H](C(=O)c2c[nH]c3ccccc23)Cc2ccc(cc2)OCCCCC[C@@H]1C(=O)NO | 
24 |  | 1.6 | 0.78 | 1.2 | C=CCC(C(=O)NO)C(CC(C)C)C(=O)N[C@H](C(=O)c1c[nH]c2ccccc12)C(C)(C)C (single isomer, unassigned) | 
25 |  | 3.4 | 3.6 | 10 | C=CCC(C(=O)NO)C(CC(C)C)C(=O)N[C@@H](Cc1ccccc1)C(=O)c1ccccc1 (single isomer, unassigned) | 
26 |  |  | 2.4 |  | CNC(=O)[C@H](Cc1ccccc1)NC(=O)[C@H](CC(C)C)[C@H](CSc1cccs1)C(=O)NO [BATIMASTAT] | 
27 |  | 3.9 | 2.2 | 9.1 | CC(C)C[C@H]1C(=O)N[C@H](C(=O)c2ccccc2)Cc2ccc(cc2)OCCCCC[C@@H]1C(=O)NO | 
28 | 3.4 | 5.1 | 1.5 | 5 | CC(C)C[C@H]1C(=O)N[C@H](C(=O)c2ccc(CO)cc2)Cc2ccc(cc2)OCCCC[C@@H]1C(=O)NO | 
